These results are taken from ChEMBL document CHEMBL1140201, “Insights into ligand-elicited activation of human constitutive androstane receptor based on novel agonists and three-dimensional quantitative structure-activity relationship” (J Med Chem, 2008).

T5 sequence (Q14994 whole entry F161A, the tested form may be a part): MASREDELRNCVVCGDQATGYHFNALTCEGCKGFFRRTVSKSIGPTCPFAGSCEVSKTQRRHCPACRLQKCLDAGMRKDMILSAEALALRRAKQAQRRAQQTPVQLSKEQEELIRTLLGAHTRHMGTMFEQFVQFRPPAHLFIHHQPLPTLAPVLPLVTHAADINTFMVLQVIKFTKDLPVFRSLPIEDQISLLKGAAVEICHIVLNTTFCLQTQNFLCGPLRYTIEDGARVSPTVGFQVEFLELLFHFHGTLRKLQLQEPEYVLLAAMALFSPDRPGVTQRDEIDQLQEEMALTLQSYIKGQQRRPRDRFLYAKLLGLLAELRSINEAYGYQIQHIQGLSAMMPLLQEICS
T3 sequence (Q14994 whole entry I164A, the tested form may be a part): as the sequence (Q14994 whole entry F161A, the tested form may be a part) above, with A161F, I164A counted along it
T1 sequence (Q14994 whole entry N165A, the tested form may be a part): as the sequence (Q14994 whole entry F161A, the tested form may be a part) above, with A161F, N165A counted along it

The first series concerns the target T1, CAR (NR1I3) Asn165Ala mutant (Homo sapiens, UniProt Q14994, N165A). As to the kind of experiment: Activation of human CAR Asn165Ala mutant expressed in human C3A cells at 10 uM after 24 hrs by GAL4-dependent luciferase reporter gene assay relative to control. The class given is cell-based. Conditions: C3A cells expressing human CAR Asn165Ala mutant, read-out: FC. (In a reporter assay the amount or activity of a reporter protein is the signal.)
Regarding `O=C1CS[C@H](c2ccncc2)N1Cc1nc2ccccc2[nH]1`, the fold induction at 24 h, 10 µM was found to be 1.19.

With `CSc1ccccc1NS(=O)(=O)c1cc(Cl)sc1Cl`, the fold induction at 24 h, 10 µM is 5.18.

Turning to `CCc1ccc(S(=O)(=O)Nc2ccccc2C(C)(C)C)cc1`, the fold induction at 24 h, 10 µM came out at 1.

As for `O=S(=O)(NCCSCc1ccccc1)c1ccc(Cl)cc1`, the fold induction at 24 h, 10 µM turned out to be 1.17.

For the molecule `CCCCN(c1ccccc1)S(=O)(=O)c1cccc2ccccc12`, the fold induction at 24 h, 10 µM was 2.07.

A further series deals with T2, CAR (NR1I3) His203Ala mutant (Homo sapiens, UniProt Q14994, H203A). As to the kind of experiment: Activation of human CAR His203Ala mutant expressed in human C3A cells at 4 uM after 24 hrs by GAL4-dependent luciferase reporter gene assay relative to control. It counts as cell-based. Conditions: C3A cells expressing human CAR His203Ala mutant, read-out: FC.
T2 sequence (Q14994 whole entry H203A, the tested form may be a part): as the sequence (Q14994 whole entry F161A, the tested form may be a part) above, with A161F, H203A counted along it
For the molecule `Clc1ccccc1C(c1ccccc1)(c1ccccc1)n1ccnc1` [CLOTRIMAZOLE], the fold induction at 24 h, 4 µM turned out to be 0.21.

Another series concerns the target T3, CAR (NR1I3) Ile164Ala mutant (Homo sapiens, UniProt Q14994, I164A). The series can be described thus: Activation of human CAR Ile164Ala mutant expressed in human C3A cells at 10 uM after 24 hrs by GAL4-dependent luciferase reporter gene assay relative to control. The conditions noted are these: C3A cells expressing human CAR Ile164Ala mutant, read-out: FC. It counts as cell-based.
In the case of `O=C1CS[C@H](c2ccncc2)N1Cc1nc2ccccc2[nH]1`, the fold induction at 24 h, 10 µM came to 1.13.

As for `CSc1ccccc1NS(=O)(=O)c1cc(Cl)sc1Cl`, the fold induction at 24 h, 10 µM was found to be 1.66.

Take `CCc1ccc(S(=O)(=O)Nc2ccccc2C(C)(C)C)cc1`: the fold induction at 24 h, 10 µM came to 1.55.

Regarding `O=S(=O)(NCCSCc1ccccc1)c1ccc(Cl)cc1`, the fold induction at 24 h, 10 µM was 2.26.

As to `CCCCN(c1ccccc1)S(=O)(=O)c1cccc2ccccc12`, the fold induction at 24 h, 10 µM amounted to 6.61.

The next series concerns the target T4, CAR (NR1I3) ligand-binding domain, wild type (Homo sapiens, UniProt Q14994).
T4 sequence (Q14994 whole entry): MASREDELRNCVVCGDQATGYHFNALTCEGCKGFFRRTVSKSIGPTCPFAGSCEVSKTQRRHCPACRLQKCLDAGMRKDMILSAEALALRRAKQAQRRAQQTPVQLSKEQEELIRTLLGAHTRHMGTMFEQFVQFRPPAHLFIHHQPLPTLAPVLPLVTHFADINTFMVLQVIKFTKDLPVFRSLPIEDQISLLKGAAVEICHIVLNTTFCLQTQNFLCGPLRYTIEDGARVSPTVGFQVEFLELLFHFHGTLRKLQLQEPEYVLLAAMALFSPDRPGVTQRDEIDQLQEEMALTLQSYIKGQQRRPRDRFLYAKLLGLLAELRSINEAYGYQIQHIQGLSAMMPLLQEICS
The series can be described thus: Activation of human CAR-LBD expressed in human C3A cells at 10 uM after 24 hrs by GAL4-dependent luciferase reporter gene assay relative to control. The conditions noted are these: C3A cells expressing human CAR-LBD, read-out: FC. The class given is cell-based.
In the case of `O=C1CS[C@H](c2ccncc2)N1Cc1nc2ccccc2[nH]1`, the fold induction at 24 h, 10 µM stood at 1.4.

On to `CSc1ccccc1NS(=O)(=O)c1cc(Cl)sc1Cl`, for which the fold induction at 24 h, 10 µM was 3.68.

As for `CCc1ccc(S(=O)(=O)Nc2ccccc2C(C)(C)C)cc1`, the fold induction at 24 h, 10 µM is 7.92.

Turning to `O=S(=O)(NCCSCc1ccccc1)c1ccc(Cl)cc1`, the fold induction at 24 h, 10 µM was 1.63.

Regarding `CCCCN(c1ccccc1)S(=O)(=O)c1cccc2ccccc12`, the fold induction at 24 h, 10 µM is 4.09.

A further series addresses T5, CAR (NR1I3) Phe161Ala mutant (Homo sapiens, UniProt Q14994, F161A). As to the kind of experiment: Activation of human CAR Phe161Ala mutant expressed in human C3A cells at 10 uM after 24 hrs by GAL4-dependent luciferase reporter gene assay relative to control. The class given is cell-based. The conditions noted are these: C3A cells expressing human CAR Phe161Ala mutant, read-out: FC.
As to `O=C1CS[C@H](c2ccncc2)N1Cc1nc2ccccc2[nH]1`, the fold induction at 24 h, 10 µM is 1.3.

As to `CSc1ccccc1NS(=O)(=O)c1cc(Cl)sc1Cl`, the fold induction at 24 h, 10 µM was 0.94.

Turning to `CCc1ccc(S(=O)(=O)Nc2ccccc2C(C)(C)C)cc1`, the fold induction at 24 h, 10 µM is 0.94.

With `O=S(=O)(NCCSCc1ccccc1)c1ccc(Cl)cc1`, the fold induction at 24 h, 10 µM is 0.92.

Turning to `CCCCN(c1ccccc1)S(=O)(=O)c1cccc2ccccc12`, the fold induction at 24 h, 10 µM turned out to be 4.4.

A further series deals with T3, CAR (NR1I3) Ile164Ala mutant. The series can be described thus: Activation of human CAR Ile164Ala mutant expressed in human C3A cells at 4 uM after 24 hrs by GAL4-dependent luciferase reporter gene assay relative to control. It counts as cell-based. The conditions noted are these: C3A cells expressing human CAR Ile164Ala mutant, read-out: FC.
Regarding `Clc1ccccc1C(c1ccccc1)(c1ccccc1)n1ccnc1` [CLOTRIMAZOLE], the fold induction at 24 h, 4 µM is 21.3.

The next series concerns the target T1, CAR (NR1I3) Asn165Ala mutant. As to the kind of experiment: Activation of human CAR Asn165Ala mutant expressed in human C3A cells at 4 uM after 24 hrs by GAL4-dependent luciferase reporter gene assay relative to control. The class given is cell-based. The conditions noted are these: C3A cells expressing human CAR Asn165Ala mutant, read-out: FC.
On to `Clc1ccccc1C(c1ccccc1)(c1ccccc1)n1ccnc1` [CLOTRIMAZOLE], for which the fold induction at 24 h, 4 µM amounted to 4.47.

The target of the next series is T5, CAR (NR1I3) Phe161Ala mutant. As to the kind of experiment: Activation of human CAR Phe161Ala mutant expressed in human C3A cells at 4 uM after 24 hrs by GAL4-dependent luciferase reporter gene assay relative to control. The class given is cell-based. Conditions: C3A cells expressing human CAR Phe161Ala mutant, read-out: FC.
Take `Clc1ccccc1C(c1ccccc1)(c1ccccc1)n1ccnc1` [CLOTRIMAZOLE]: the fold induction at 24 h, 4 µM came to 13.1.

The next series deals with T4, CAR (NR1I3) ligand-binding domain, wild type. As to the kind of experiment: Activation of human CAR-LBD expressed in human C3A cells at 4 uM after 24 hrs by GAL4-dependent luciferase reporter gene assay relative to control. It counts as cell-based. Conditions: C3A cells expressing human CAR-LBD, read-out: FC.
For `Clc1ccccc1C(c1ccccc1)(c1ccccc1)n1ccnc1` [CLOTRIMAZOLE], the fold induction at 24 h, 4 µM came to 4.34.

The target in another series is T2, CAR (NR1I3) His203Ala mutant. As to the kind of experiment: Activation of human CAR His203Ala mutant expressed in human C3A cells at 10 uM after 24 hrs by GAL4-dependent luciferase reporter gene assay relative to control. It counts as cell-based. Conditions: C3A cells expressing human CAR His203Ala mutant, read-out: FC.
On to `O=C1CS[C@H](c2ccncc2)N1Cc1nc2ccccc2[nH]1`, for which the fold induction at 24 h, 10 µM stood at 1.24.

Take `CSc1ccccc1NS(=O)(=O)c1cc(Cl)sc1Cl`: the fold induction at 24 h, 10 µM is 1.84.

Consider `CCc1ccc(S(=O)(=O)Nc2ccccc2C(C)(C)C)cc1`, for which the fold induction at 24 h, 10 µM came to 2.62.

Consider `O=S(=O)(NCCSCc1ccccc1)c1ccc(Cl)cc1`, for which the fold induction at 24 h, 10 µM stood at 3.21.

For `CCCCN(c1ccccc1)S(=O)(=O)c1cccc2ccccc12`, the fold induction at 24 h, 10 µM is 5.44.
